Test results reported in patent US20100029654A1, “CARDIOVASCULAR COMPOSITIONS AND USE OF THE SAME FOR THE TREATMENT OF ALZHEIMER'S DISEASE” (MOUNT SINAI SCHOOL OF MEDICINE, priority 2006, published 2010).
Structures can show the parent of a compound that is named as a salt. Where two headings read alike, the source gives them in different places.

Legend:
[1] = tested on: primary cortico-hippocampal neuron cultures; assay: lactate dehydrogenase (LDH) activity assay in parallel neuron cultures
Protocol: For in vitro treatments drugs available from “The Spectrum Collection” in stocks of 10 mM in DMSO were applied directly to cultures to the desired concentrations (final 1% DMSO); control primary neuron cultures from Tg2576 embryos were treated with vehicle resulting in a final 1% DMSO.
Cell viability was assessed using a commercial available LDH assay kit according to the manufacture's instruction (Promega).

[2] = tested on: Aβ1-40; assay: Aβ1-40 content in conditioned medium of primary cortico-hippocampal neuron cultures from Tg2576 mice (ELISA; primary and secondary dose-response screening); format: cell-based, mouse; conditions: for activity at 100 µM: Mus musculus, Neuron, 24 h, read-out: Ab1-40 (% of ctl); for activity at 100 µM / Ab1-40 (% of ctl): drug 100 μM; for reduced Aβ1-40: <85% of ctl
Outline: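 Primary cortico-hippocampal neurons from embryonic Tg2576 mice were plated at 1.0×10^5 cells per well on poly-D-lysine-coated 96-well plates in Neurobasal with 2% B27, 0.5 mM L-glutamine and 1% penicillin-streptomycin. Cultures received drug in 1% DMSO, and Aβ1-40 in the conditioned medium was measured by BioSource ELISA 24 hours after treatment, relative to vehicle controls.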

[3] = tested on: Aβ1-42; assay: Aβ1-42 content in conditioned medium of primary cortico-hippocampal neuron cultures from Tg2576 mice (ELISA; primary and secondary dose-response screening); format: cell-based, mouse; conditions: for activity at 100 µM: Mus musculus, Neuron, 24 h, read-out: Ab1-42 (% of ctl); for activity at 100 µM / Ab1-42 (% of ctl): drug 100 μM; for reducing Aβ1-42: <85% of ctl
Outline: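 Primary cortico-hippocampal neurons from embryonic Tg2576 mouse brain were seeded on poly-D-lysine-coated 96-well plates at 1.0×10^5 cells per well in serum-free Neurobasal medium with 2% B27, 0.5 mM L-glutamine and 1% penicillin-streptomycin. For primary screening, duplicate wells received 100 μM drug (1% DMSO final). Vehicle-treated cultures served as controls, and Aβ1-42 in conditioned medium was measured by commercial ELISA.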

[4] = tested on: primary cortico-hippocampal neuron cultures; assay: MTT in primary screening
[5] = Primary Screening, table sorted by Aβ1-40
[6] = primary screening, table sorted by Aβ1-42
[7] = primary screening, Tg2576 neuron cultures, table sorted by Aβ1-42

SMILES	LDH (% of ctl) [1, 5]	LDH (% of ctl) [1, 6]	activity at 100 µM [2, 5]	activity at 100 µM [2, 7]	reduced Aβ1-40 ([2]; primary screening)	activity at 100 µM [3, 5]	activity at 100 µM [3, 7]	reducing Aβ1-42 ([3]; primary screening)	MTT (% of ctl) [4, 5]	MTT (% of ctl) [4, 6]	Ab1-40 (% of ctl) [2, 5]	Ab1-40 (% of ctl) [2, 7]	Ab1-42 (% of ctl) [3, 5]	Ab1-42 (% of ctl) [3, 7]
CCCc1nc(C(C)(C)O)c(C(=O)OCc2oc(=O)oc2C)n1Cc1ccc(-c2ccccc2-c2nnn[nH]2)cc1 [Olmesartan Medoxomil]	90.7 % of ctl	90.7 % of ctl	83.9%	83.9%	reduced Aβ1-40	70.7%	70.7%	useful in reducing Aβ1-42	90.7 % of ctl	90.7 % of ctl				
NS(=O)(=O)c1cc(C2(O)NC(=O)c3ccccc32)ccc1Cl (stereo not drawn) [Chlorthalidone]	645.8 % of ctl	645.8 % of ctl	108%	108%		96.7%	96.7%		12.1 % of ctl	12.1 % of ctl				
CC(CCc1ccccc1)NC(C)C(O)c1ccc(O)cc1 (stereo not drawn) [Nylidrin Hydrochloride]	115.6 % of ctl	115.6 % of ctl	70.5%	70.5%	reduced Aβ1-40	90.4%	90.4%		79.7 % of ctl	79.7 % of ctl				
COc1cc2nc(N(C)CCCNC(=O)C3CCCO3)nc(N)c2cc1OC (stereo not drawn) [Alfluzosin]	95.4 % of ctl	95.4 % of ctl						useful in reducing Aβ1-42	91.8 % of ctl	91.8 % of ctl	122.7 % of ctl	122.7 % of ctl	66.9 % of ctl	66.9 % of ctl
CCCc1nc2c(C)cc(-c3nc4ccccc4n3C)cc2n1Cc1ccc(-c2ccccc2C(=O)O)cc1 [Telmisartan]	111.3 % of ctl	111.3 % of ctl	91.1%	91.1%		112%	112%		109.4 % of ctl	109.4 % of ctl				
Nc1cc(N2CCCCC2)nc(N)[n+]1[O-] [Minoxidil]	117.1 % of ctl	117.1 % of ctl	94.2%	94.2%		98.9%	98.9%		98.5 % of ctl	98.5 % of ctl				
CCOC(=O)[C@H](CCc1ccccc1)N[C@@H](C)C(=O)N1Cc2ccccc2C[C@H]1C(=O)O [Quinapril Hydrochloride]	101.8 % of ctl	101.8 % of ctl	119%	119%		118%	118%		102.4 % of ctl	102.4 % of ctl				
CC(C)NCC(O)c1ccc2ccccc2c1 (stereo not drawn) [Pronetalol Hydrochloride]	108.9 % of ctl	108.9 % of ctl	88%	88%		94.6%	94.6%		88.8 % of ctl	88.8 % of ctl				
C=CCc1ccccc1OCC(O)CNC(C)C (stereo not drawn) [Alprenolol]	128.0 % of ctl	128.0 % of ctl	93.8%	93.8%		106%	106%		92.2 % of ctl	92.2 % of ctl				
CC(=O)Nc1ccc(OCC(O)CNC(C)C)cc1 (stereo not drawn) [Practolol]	108.9 % of ctl	108.9 % of ctl	99.7%	99.7%		99.9%	99.9%		101.3 % of ctl	101.3 % of ctl				
CC(C)NCC(O)COc1cccc2[nH]ccc12 (stereo not drawn) [Pindolol]	171.7 % of ctl	171.7 % of ctl	99%	99%		46.1%	46.1%	useful in reducing Aβ1-42	98.9 % of ctl	98.9 % of ctl				
CCOC(=O)C1=C[C@]2(CC)CCCN3CCc4c(n1c1ccccc41)[C@@H]32 [Vinpocetine]	111.3 % of ctl	111.3 % of ctl	60.4%	60.4%	reduced Aβ1-40	105%	105%		87.7 % of ctl	87.7 % of ctl				
COc1ccc(OC)c(C(O)CNC(=O)CN)c1 (stereo not drawn) [Midodrine Hydrochloride]	105.6 % of ctl	105.6 % of ctl	86%	86%		76.7%	76.7%	useful in reducing Aβ1-42	87.8 % of ctl	87.8 % of ctl				
COC(=O)[C@H]1[C@H]2C[C@H]3c4[nH]c5ccccc5c4CCN3C[C@H]2CC[C@@H]1O [Rauwolscine Hydrochloride]	109.4 % of ctl	109.4 % of ctl	103%	103%		74.3%	74.3%	useful in reducing Aβ1-42	98.0 % of ctl	98.0 % of ctl				
CC(C)c1c(C(=O)Nc2ccccc2)c(-c2ccccc2)c(-c2ccc(F)cc2)n1CC[C@@H](O)C[C@@H](O)CC(=O)[O-].CC(C)c1c(C(=O)Nc2ccccc2)c(-c2ccccc2)c(-c2ccc(F)cc2)n1CC[C@@H](O)C[C@@H](O)CC(=O)[O-].[Ca+2] [Atorvastatin Calcium]	99.4 % of ctl	99.4 % of ctl			reduced Aβ1-40			useful in reducing Aβ1-42	98.4 % of ctl	98.4 % of ctl	66.0 % of ctl	66.0 % of ctl	76.9 % of ctl	76.9 % of ctl
CCCC(=O)Nc1ccc(OCC(O)CNC(C)C)c(C(C)=O)c1 (stereo not drawn) [Acebutolol Hydrochloride]	107.6 % of ctl	107.6 % of ctl	134%	134%		165%	165%		99.4 % of ctl	99.4 % of ctl				
